MIC data for four compounds are collected here from DBAASP.

Test systems include Escherichia coli 170; Acinetobacter baumannii; Escherichia coli 4530; Escherichia coli F470; Escherichia coli JW3596; Escherichia coli F2513; Escherichia coli JW3605; Escherichia coli BW25113.
Common to all, as to assay: ≥ marks a high value that may be exact or a test limit, other limits are often not marked, values filed in µg/mL are converted to µM
Assay [1] deals with Bacillus subtilis ATCC 9372.
Assay [2] has as its system Burkholderia thailandensis.
Assay [3] concerns Bacillus anthracis Sterne 34F2.
For assay [4], the system named is Bacillus subtilis KCTC 1918.
Assay [5] concerns Salmonella typhimurium CCARM 8009.
For assay [6], the system named is Bacillus subtilis KCTC 1998.
The test system of assay [7] is Pseudomonas aeruginosa ATCC 15692.
Assay [8] has as its system Salmonella typhimurium CCARM 8013.
Assay [9] has as its system Staphylococcus epidermidis KCTC 3096.
In assay [10] the test system is Aspergillus parasiticus KCTC 6598.
For assay [11], the system named is Staphylococcus epidermidis ATCC 12228.
Assay [12] has as its system Candida albicans KCTC 7270.
Assay [13] has as its system Proteus vulgaris KCTC 2433.
Assay [14] concerns Pseudomonas aeruginosa KCTC 1637.
Assay [15] relates to Staphylococcus aureus CCARM 3089.
The test system of assay [16] is Staphylococcus aureus PBEL.
The subject of assay [17] is Escherichia coli CCARM 1238.
Assay [18] deals with Listeria monocytogenes ATCC 19115.
Assay [19] relates to Aspergillus fumigatus KCTC 6145.
For assay [20], the system named is Pseudomonas aeruginosa 4007.
Assay [21] concerns Staphylococcus aureus CCARM 3114.
Assay [22] deals with Salmonella typhimurium KCTC 1926.
Assay [23] concerns Listeria monocytogenes KCTC 3710.
For assay [24], the system named is Pseudomonas aeruginosa 3547.
Assay [25] deals with Escherichia coli CCARM 1229.
In assay [26] the test system is Aspergillus flavus KCTC 6905.
For assay [27], the system named is Trichosporon beigelii KCTC 7707.
Assay [28] concerns Aspergillus awamori KCTC 6915.
For assay [29], the system named is Pseudomonas aeruginosa 5106.
The subject of assay [30] is Enterobacter cloacae 2524.
Assay [31] concerns Klebsiella pneumoniae 913.
Assay [32] concerns Enterobacter cloacae 6780.
The subject of assay [33] is Pseudomonas aeruginosa 4677.
Assay [34] relates to Klebsiella pneumoniae 1625.
The test system of assay [35] is Escherichia coli ATCC 25922.
The subject of assay [36] is Micrococcus luteus ATCC 9341.

≈ marks a conversion by molar mass, not a printed value.

In the case of `CC[C@H](C)[C@@H]1NC(=O)CNC(=O)[C@H](CO)NC(=O)[C@H](CC(C)C)NC(=O)[C@H](CC(C)C)NC(=O)[C@H](CC(=O)O)NC(=O)[C@@H](NC(=O)[C@@H](NC(=O)[C@H](C)N)[C@@H](C)O)CSSC[C@@H]2NC(=O)[C@H](Cc3ccc(O)cc3)NC(=O)CNC(=O)CNC(=O)[C@H](CCCN=C(N)N)NC(=O)[C@H](CC(N)=O)NC(=O)CNC(=O)[C@H](CCCN=C(N)N)NC(=O)[C@H](Cc3ccccc3)NC(=O)[C@H](C(C)C)NC(=O)[C@@H]3CSSC[C@@H](C(=O)N[C@@H](CCCN=C(N)N)C(=O)N[C@@H](CC(N)=O)C(=O)O)NC(=O)[C@H](C(C)C)NC(=O)[C@H](CSSC[C@H](NC(=O)[C@H](C)NC(=O)[C@H](CO)NC(=O)[C@H](Cc4cnc[nH]4)NC(=O)[C@H](CCC(N)=O)NC(=O)[C@H](C(C)C)NC(=O)CNC1=O)C(=O)N[C@@H](C)C(=O)N[C@@H](CC(C)C)C(=O)N[C@@H](Cc1cnc[nH]1)C(=O)N3)NC(=O)[C@H]([C@@H](C)CC)NC(=O)CNC(=O)[C@H](CCCCN)NC(=O)CNC(=O)[C@H]([C@@H](C)O)NC2=O` [ATCDLLSGIGVQHSACALHCVFRGNRGGYCTGKGICVCRN], the minimal inhibitory concentration (MIC) was 7.9 µM (≈ 32.7 µg/mL) in assay [1], at least 50 µM in [2] and at least 79 µM in [3].

For `CC[C@H](C)[C@H](NC(=O)[C@H](CCCCN)NC(=O)[C@H](CCCCN)NC(=O)[C@H](Cc1ccccc1)NC(=O)[C@H](CC(C)C)NC(=O)[C@H](CCCCN)NC(=O)[C@H](CCCCN)NC(=O)[C@H](CC(C)C)NC(=O)[C@H](CCCN=C(N)N)NC(=O)[C@H](CCCCN)NC(=O)[C@@H](N)Cc1ccccc1)C(=O)N[C@@H](Cc1c[nH]c2ccccc12)C(=O)N[C@@H](CC(N)=O)C(=O)N[C@@H](Cc1c[nH]c2ccccc12)C(=O)N[C@@H](CCCCN)C(N)=O` [FKRLKKLFKKIWNWK], the MIC in assay [4] is 2 µM (≈ 4.13 µg/mL); in assay [5] it was 4 µM (≈ 8.25 µg/mL); in [6] it was 2 µM (≈ 4.13 µg/mL); in [7], 2 µM (≈ 4.13 µg/mL); in assay [8], 1 µM (≈ 2.06 µg/mL); in [9] it was 2.83 µM (≈ 5.83 µg/mL). In addition, the MIC in [10] worked out at 8 µM (≈ 16.5 µg/mL); in assay [11], 2.83 µM (≈ 5.83 µg/mL); in assay [12], 8 µM (≈ 16.5 µg/mL); in [13], 8 µM (≈ 16.5 µg/mL); in [14], 2 µM (≈ 4.13 µg/mL); in assay [15], 2 µM (≈ 4.13 µg/mL). The minimal inhibitory concentration (MIC) was 1 µM (≈ 2.06 µg/mL) in assay [16]; 2 µM (≈ 4.13 µg/mL) in assay [17]; 2 µM (≈ 4.13 µg/mL) in assay [18]; 4 µM (≈ 8.25 µg/mL) in assay [19]; 1 µM (≈ 2.06 µg/mL) in assay [20]; 2 µM (≈ 4.13 µg/mL) in assay [21]. The MIC in [22] stood at 2 µM (≈ 4.13 µg/mL); in [23] it was 2 µM (≈ 4.13 µg/mL); in assay [24] it was 4 µM (≈ 8.25 µg/mL); in [25], 2 µM (≈ 4.13 µg/mL); in assay [26], 16 µM (≈ 33 µg/mL); in [27], 16 µM (≈ 33 µg/mL). Further, the MIC in [28] worked out at 16 µM (≈ 33 µg/mL).

Consider `CC[C@H](C)[C@H](N)C(=O)N[C@@H](CCCCN)C(=O)N[C@@H](CO)C(=O)N[C@H](C(=O)N[C@@H](C)C(=O)N[C@@H](CO)C(=O)N[C@@H](CCCCN)C(=O)N[C@H](C(=O)N[C@@H](C)C(=O)N[C@@H](CC(N)=O)C(=O)N[C@H](C(=O)N[C@H](C(=O)N[C@@H](CCC(N)=O)C(=O)N[C@@H](CCCCN)C(=O)N[C@@H](CC(C)C)C(=O)N[C@@H](CCCCN)C(=O)N[C@@H](CCCN=C(N)N)C(=O)N[C@@H](CCCCN)C(=O)N[C@@H](C)C(=O)N[C@@H](CCCCN)C(=O)N[C@@H](CC(N)=O)C(=O)N[C@@H](C)C(=O)N[C@H](C(=O)O)C(C)C)C(C)C)[C@@H](C)O)C(C)C)[C@@H](C)CC` [IKSIASKVANTVQKLKRKAKNAV], for which the minimum inhibitory concentration (MIC) in assay [29] is at least 50 µM; against Escherichia coli 170 it was 3.12 µM (≈ 7.79 µg/mL); in [30] it was at least 50 µM; with Acinetobacter baumannii, 8.84 µM (≈ 22.1 µg/mL); in assay [31], at least 50 µM; in assay [32], 25 µM (≈ 62.4 µg/mL). Moreover, the minimal inhibitory concentration (MIC) in [33] amounted to 12.5 µM (≈ 31.2 µg/mL); in the assay with Escherichia coli 4530, 25 µM (≈ 62.4 µg/mL); in assay [34], 3.12 µM (≈ 7.79 µg/mL); in assay [35], 12.5 µM (≈ 31.2 µg/mL).

As for `CC[C@H](C)[C@H](N)C(=O)N[C@@H](CC(C)C)C(=O)N1CCC[C@H]1C(=O)N[C@@H](Cc1c[nH]c2ccccc12)C(=O)N[C@@H](CCCCN)C(=O)N[C@@H](Cc1c[nH]c2ccccc12)C(=O)N1CCC[C@H]1C(=O)N[C@@H](Cc1c[nH]c2ccccc12)C(=O)N[C@@H](Cc1c[nH]c2ccccc12)C(=O)N1CCC[C@H]1C(=O)N[C@@H](Cc1c[nH]c2ccccc12)C(=O)N[C@@H](CCCN=C(N)N)C(N)=O` [ILPWKWPWWPWR], the MIC in assay [36] is 0.8 µM (≈ 1.4 µg/mL); in the assay on Escherichia coli F470, 18.3 µM (≈ 32 µg/mL); against Escherichia coli JW3596, 2.28 µM (≈ 4 µg/mL); in the assay with Escherichia coli F2513 it was 6.46 µM (≈ 11.3 µg/mL); against Escherichia coli JW3605, 18.3 µM (≈ 32 µg/mL); in the assay on Escherichia coli BW25113 it was 18.3 µM (≈ 32 µg/mL). For the same compound, the MIC in assay [35] came to 18.3 µM (≈ 32 µg/mL).
